Results reported in ChEMBL document CHEMBL1201862, “PubChem BioAssay data set” (2004).
Activity calls are given as the source filed them.

Legend:
[1] = target: T1, Nuclear receptor subfamily 0 group B member 1 (Homo sapiens, UniProt P51843); assay type: functional, cell-based;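 further: HEK293T cells transfected with SF-1 and DAX-1 plus StAR promoter luciferase reporter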
T1 sequence (P51843 whole entry): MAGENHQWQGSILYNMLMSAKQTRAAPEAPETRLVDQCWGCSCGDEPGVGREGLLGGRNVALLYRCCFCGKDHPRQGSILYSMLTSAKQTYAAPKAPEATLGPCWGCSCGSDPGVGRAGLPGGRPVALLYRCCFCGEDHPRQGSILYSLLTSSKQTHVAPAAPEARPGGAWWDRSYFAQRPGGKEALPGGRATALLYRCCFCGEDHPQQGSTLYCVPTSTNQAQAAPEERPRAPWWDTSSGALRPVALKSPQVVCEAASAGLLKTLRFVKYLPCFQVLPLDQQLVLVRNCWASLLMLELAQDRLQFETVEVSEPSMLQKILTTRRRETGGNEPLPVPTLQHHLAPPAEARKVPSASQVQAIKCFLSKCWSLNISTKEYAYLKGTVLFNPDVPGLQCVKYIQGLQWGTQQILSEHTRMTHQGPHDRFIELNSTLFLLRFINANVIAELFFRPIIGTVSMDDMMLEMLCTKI

cells = assay type: functional, cell-based
[2] = target: T2, Low molecular weight phosphotyrosine protein phosphatase (Homo sapiens, UniProt P24666); assay type: functional; settings: read-out: IC50_Mean
T2 sequence (P24666 whole entry): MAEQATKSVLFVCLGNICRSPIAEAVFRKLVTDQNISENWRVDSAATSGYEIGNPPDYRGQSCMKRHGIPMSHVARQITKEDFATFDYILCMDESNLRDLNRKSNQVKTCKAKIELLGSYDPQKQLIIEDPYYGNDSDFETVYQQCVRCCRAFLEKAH

[3] = target: T2, Low molecular weight phosphotyrosine protein phosphatase; assay type: functional; settings: read-out: IC50_Mean; remark: listed apart in the source
[4] = target: Induced myeloid leukemia cell differentiation protein Mcl-1 (Homo sapiens, UniProt Q07820); assay type: functional
Induced myeloid leukemia cell differentiation protein Mcl-1, sequence (Q07820 whole entry, the tested form may be a part): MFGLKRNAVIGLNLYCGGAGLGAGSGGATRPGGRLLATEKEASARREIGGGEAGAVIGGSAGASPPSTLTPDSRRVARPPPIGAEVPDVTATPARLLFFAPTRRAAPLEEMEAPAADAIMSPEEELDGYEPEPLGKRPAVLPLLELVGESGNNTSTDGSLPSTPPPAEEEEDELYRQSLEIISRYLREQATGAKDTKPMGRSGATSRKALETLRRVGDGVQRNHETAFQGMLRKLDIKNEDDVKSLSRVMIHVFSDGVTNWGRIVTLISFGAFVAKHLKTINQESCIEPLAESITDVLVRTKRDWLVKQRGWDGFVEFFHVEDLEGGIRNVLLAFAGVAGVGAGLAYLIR

[5] = target: Disintegrin and metalloproteinase domain-containing protein 17 (Homo sapiens, UniProt P78536); experiment: exosite inhibitors of ADAM17, dose response, biochemical (AID 743260)
Disintegrin and metalloproteinase domain-containing protein 17, sequence (P78536 whole entry, the tested form may be a part): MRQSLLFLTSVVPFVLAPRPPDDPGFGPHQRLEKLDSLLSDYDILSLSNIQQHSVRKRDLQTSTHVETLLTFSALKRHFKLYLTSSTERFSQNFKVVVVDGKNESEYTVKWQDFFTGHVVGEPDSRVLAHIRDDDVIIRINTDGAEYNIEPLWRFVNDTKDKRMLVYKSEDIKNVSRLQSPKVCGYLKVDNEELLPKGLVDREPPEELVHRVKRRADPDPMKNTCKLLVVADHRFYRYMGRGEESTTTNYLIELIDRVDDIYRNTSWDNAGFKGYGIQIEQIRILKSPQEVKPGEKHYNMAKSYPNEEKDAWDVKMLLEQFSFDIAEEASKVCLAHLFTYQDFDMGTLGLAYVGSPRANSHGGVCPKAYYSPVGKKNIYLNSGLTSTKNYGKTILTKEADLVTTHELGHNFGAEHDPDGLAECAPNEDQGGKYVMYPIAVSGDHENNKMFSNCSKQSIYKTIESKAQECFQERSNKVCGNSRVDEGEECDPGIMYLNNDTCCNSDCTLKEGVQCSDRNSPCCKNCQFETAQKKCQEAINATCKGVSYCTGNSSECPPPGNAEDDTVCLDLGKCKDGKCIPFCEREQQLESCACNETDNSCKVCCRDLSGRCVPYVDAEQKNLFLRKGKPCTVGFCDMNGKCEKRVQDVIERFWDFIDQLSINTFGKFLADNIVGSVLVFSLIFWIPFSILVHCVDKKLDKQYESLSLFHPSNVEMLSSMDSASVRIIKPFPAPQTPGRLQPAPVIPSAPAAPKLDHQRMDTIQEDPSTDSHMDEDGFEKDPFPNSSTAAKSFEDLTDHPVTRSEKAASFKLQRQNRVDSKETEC

[6] = target: Photoreceptor-specific nuclear receptor (Homo sapiens, UniProt Q9Y5X4); assay type: functional, cell-based;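 further: CHO-S cells with Gal4-NCOR and VP16-NR2E3 two-hybrid luciferase reporter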
Photoreceptor-specific nuclear receptor, sequence (Q9Y5X4 whole entry, the tested form may be a part): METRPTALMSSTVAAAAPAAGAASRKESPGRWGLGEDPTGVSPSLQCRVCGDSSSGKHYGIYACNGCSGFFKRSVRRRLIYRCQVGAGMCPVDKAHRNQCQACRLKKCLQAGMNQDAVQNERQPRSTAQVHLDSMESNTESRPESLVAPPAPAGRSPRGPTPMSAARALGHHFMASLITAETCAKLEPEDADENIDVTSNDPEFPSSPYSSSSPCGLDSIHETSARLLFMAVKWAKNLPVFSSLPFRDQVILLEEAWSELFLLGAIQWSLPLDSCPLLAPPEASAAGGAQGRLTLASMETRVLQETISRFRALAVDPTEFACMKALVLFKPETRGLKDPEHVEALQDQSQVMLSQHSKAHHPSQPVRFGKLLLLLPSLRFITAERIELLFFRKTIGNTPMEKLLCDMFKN

Vero = experiment: viability of Vero cells under compound – cytotoxicity control for flavivirus capping enzyme inhibitors (AID 588742); assay type: functional; settings: Chlorocebus sabaeus
[7] = target: T3, Polyadenylate-binding protein 1 (Homo sapiens, UniProt P11940); experiment: MLLE binding blockers, Cy5 peptide tracer – biochemical, fluorescence polarization, Cy5-PAM2 peptide, secondary, miRNA deadenylation inhibitor project, dose response (AID 602260); assay type: functional; settings: read-out: IC50_Mean
T3 sequence (P11940 whole entry): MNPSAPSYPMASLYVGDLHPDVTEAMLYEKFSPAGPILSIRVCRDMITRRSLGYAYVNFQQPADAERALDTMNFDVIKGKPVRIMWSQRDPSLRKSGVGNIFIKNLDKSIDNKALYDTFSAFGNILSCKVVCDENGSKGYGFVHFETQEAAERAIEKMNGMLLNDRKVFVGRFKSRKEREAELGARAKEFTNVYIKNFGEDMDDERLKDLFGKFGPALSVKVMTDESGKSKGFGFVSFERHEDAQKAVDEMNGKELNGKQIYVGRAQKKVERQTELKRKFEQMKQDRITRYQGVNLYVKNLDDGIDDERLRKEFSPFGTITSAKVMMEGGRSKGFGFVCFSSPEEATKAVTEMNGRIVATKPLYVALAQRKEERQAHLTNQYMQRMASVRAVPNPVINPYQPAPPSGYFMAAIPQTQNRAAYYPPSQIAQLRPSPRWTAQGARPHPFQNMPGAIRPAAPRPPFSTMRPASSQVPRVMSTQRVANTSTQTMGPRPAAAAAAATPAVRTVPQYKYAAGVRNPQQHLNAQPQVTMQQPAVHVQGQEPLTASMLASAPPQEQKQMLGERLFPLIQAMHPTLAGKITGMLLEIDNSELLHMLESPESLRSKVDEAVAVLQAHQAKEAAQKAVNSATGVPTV

Genome polyprotein = Genome polyprotein (dengue virus type 2, UniProt P29990); experiment: flavivirus cap methylation enzyme inhibition – biochemical, confirmation dose response, primary screen (AID 588689); assay type: functional
Genome polyprotein, sequence (P29990 2492-3391 limits assumed): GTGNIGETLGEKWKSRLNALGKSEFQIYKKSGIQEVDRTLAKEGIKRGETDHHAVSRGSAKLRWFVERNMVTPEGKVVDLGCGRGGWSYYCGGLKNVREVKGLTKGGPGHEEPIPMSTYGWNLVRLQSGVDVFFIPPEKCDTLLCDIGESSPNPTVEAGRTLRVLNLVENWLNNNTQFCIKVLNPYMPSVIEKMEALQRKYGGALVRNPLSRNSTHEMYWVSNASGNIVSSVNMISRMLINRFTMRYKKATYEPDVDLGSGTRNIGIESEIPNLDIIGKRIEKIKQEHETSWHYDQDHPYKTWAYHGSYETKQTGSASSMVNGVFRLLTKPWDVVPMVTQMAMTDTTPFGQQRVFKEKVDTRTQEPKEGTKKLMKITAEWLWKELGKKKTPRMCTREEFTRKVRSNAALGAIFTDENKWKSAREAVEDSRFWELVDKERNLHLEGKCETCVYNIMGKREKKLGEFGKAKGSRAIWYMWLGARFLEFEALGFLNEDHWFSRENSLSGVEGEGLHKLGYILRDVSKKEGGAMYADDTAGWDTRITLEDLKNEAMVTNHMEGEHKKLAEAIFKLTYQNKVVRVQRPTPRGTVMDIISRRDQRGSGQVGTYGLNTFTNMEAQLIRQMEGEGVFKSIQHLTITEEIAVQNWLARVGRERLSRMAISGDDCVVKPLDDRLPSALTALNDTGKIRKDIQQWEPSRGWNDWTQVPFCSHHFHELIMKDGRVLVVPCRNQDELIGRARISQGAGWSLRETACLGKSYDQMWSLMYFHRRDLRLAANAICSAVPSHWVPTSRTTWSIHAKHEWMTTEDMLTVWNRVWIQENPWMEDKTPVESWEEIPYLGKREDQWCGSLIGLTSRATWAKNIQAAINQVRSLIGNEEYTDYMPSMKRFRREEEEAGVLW

[8] = target: T4, Carboxy-terminal domain RNA polymerase II polypeptide A small phosphatase 1 (Homo sapiens, UniProt Q9GZU7); experiment: CTDSP1 inhibitors, concentration-response, biochemical, absorbance readout, ultra-high-throughput screen actives (AID 540297); assay type: functional
T4 sequence (Q9GZU7 whole entry): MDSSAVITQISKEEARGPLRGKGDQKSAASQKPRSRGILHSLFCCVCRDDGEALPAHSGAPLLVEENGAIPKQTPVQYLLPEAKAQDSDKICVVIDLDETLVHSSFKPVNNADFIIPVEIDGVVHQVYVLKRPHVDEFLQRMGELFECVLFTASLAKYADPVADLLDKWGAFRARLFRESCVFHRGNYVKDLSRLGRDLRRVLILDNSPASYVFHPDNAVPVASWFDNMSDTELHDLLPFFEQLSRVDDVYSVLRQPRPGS

[9] = target: T3, Polyadenylate-binding protein 1; experiment: MLLE domain peptide-binding blockers, IC50 – biochemical, fluorescence polarization, FITC-PAM2 peptide, dose response (AID 602259); assay type: functional; settings: read-out: IC50_Mean
[10] = target: Long-chain-fatty-acid--AMP ligase FadD28 (Mycobacterium tuberculosis, UniProt P9WQ59); experiment: Fluorescence polarization aasay to screen for inhibitors that compete for the binding of FadD28 to a bisubstrate Measured in Biochemical System Using Plate Reader - 2147-01_Inhibitor_Dose_CherryPick_Activity.; assay type: functional, Mycobacterium tuberculosis H37Rv
Long-chain-fatty-acid--AMP ligase FadD28, sequence (P9WQ59 whole entry): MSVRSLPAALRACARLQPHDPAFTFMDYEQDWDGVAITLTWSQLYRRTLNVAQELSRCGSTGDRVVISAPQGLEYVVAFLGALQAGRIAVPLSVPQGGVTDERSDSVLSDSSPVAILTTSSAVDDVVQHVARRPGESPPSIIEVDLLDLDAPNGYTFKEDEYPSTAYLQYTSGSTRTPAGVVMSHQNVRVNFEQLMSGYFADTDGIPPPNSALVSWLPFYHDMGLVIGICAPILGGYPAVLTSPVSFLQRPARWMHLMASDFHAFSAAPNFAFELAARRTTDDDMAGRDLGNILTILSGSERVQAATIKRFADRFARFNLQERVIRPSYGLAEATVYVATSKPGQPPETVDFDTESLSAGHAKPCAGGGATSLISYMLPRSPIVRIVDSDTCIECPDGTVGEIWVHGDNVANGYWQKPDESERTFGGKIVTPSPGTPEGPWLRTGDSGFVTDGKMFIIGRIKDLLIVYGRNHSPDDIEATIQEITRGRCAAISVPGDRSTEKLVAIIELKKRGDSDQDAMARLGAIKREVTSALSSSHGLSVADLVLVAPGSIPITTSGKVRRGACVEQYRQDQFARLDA

Protein skinhead-1 = target: T5, Protein skinhead-1 (Caenorhabditis elegans, UniProt P34707); assay type: functional
T5 sequence (P34707 whole entry): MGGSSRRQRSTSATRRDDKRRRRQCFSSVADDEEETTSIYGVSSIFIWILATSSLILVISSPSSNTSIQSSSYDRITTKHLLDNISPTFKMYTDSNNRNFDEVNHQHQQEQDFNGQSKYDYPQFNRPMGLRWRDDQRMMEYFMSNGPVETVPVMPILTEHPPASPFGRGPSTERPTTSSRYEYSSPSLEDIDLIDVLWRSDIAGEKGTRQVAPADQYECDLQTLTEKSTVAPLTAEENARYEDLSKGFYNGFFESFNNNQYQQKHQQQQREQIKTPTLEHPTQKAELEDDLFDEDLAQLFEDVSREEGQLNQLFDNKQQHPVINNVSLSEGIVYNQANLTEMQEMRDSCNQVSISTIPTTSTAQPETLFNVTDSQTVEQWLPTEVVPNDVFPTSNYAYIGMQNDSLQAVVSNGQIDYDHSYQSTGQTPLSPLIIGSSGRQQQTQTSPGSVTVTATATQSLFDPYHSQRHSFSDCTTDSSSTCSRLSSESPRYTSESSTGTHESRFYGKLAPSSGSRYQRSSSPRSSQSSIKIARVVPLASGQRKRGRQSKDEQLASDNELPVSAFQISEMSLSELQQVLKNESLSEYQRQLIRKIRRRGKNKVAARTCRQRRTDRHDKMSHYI

[11] = Dd2 parasite growth inhibition in erythrocytes – SYBR Green, dry powder samples, set 9, dose response (AID 1159568); assay type: functional, cell-based
[12] = CTGF mRNA reduction in DLD1 cells – cell-based, DLD1 colon cancer, RT-qPCR, cherry-pick, dose response (AID 1053122); assay type: functional; settings: Cancer cell lines
[13] = target: T6, Corticotropin-releasing factor receptor 2/Corticotropin-releasing factor-binding protein (Homo sapiens, UniProt P24387+Q13324); experiment: Dose Response confirmation of uHTS hits for small molecule antagonists of the CRF-binding protein and CRF-R2 receptor complex.; assay type: functional; settings: read-out: IC50_Mean
T6 sequence (Q13324 whole entry): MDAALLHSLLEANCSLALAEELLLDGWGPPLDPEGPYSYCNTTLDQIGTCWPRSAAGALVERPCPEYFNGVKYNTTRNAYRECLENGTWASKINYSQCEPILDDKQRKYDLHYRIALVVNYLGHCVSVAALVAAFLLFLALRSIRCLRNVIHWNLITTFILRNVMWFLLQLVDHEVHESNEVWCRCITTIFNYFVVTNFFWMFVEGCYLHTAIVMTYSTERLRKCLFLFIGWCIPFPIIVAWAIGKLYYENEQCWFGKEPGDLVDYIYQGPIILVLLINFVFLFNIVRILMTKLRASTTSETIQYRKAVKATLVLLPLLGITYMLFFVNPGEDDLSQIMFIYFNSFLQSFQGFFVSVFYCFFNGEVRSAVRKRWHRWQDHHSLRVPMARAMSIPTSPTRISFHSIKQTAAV
T6 sequence (P24387 whole entry): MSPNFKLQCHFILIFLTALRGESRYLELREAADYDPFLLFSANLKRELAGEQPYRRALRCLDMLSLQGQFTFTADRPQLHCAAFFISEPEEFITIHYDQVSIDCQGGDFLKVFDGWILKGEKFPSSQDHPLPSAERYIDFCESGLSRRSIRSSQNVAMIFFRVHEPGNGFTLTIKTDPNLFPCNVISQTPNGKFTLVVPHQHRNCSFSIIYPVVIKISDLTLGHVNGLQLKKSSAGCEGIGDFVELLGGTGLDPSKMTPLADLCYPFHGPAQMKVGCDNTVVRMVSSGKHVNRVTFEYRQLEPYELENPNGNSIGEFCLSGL

[14] = blockers of CRF-binding protein–CRF-R2 complex – cell-based, uHTS hits, 384-well, dose response (AID 651639); assay type: functional, Homo sapiens; settings: read-out: IC50_Mean
[15] = target: T6, Corticotropin-releasing factor receptor 2/Corticotropin-releasing factor-binding protein; experiment: activators of CRF receptor 2 with binding protein – uHTS hits, confirmation (AID 602473); assay type: functional; settings: read-out: EC50_Mean

## O=C(COc1ccc(F)cc1)Nc1ccc2c(c1)OCCO2
[1]
  IC50: > 67.6 µM (inactive)
cells
  IC50: > 67.6 µM (inactive)

## Cc1ccc(NC2=NC(=O)S/C2=C\c2ccco2)cc1
[2]
  IC50: > 80 µM (inactive)
[3]
  IC50: 23.9 µM (inactive)
[4]
  IC50: 7.28 µM (active)

## C/C(=N\N=C(/N)SC1CC(=O)N(c2ccccc2)C1=O)c1cccs1 (stereo not drawn)
[5]
  IC50: > 69.5 µM (inactive)

## OC[C@@H]1CN(Cc2ccc(-c3ccccc3)cc2)C[C@H](n2cnc3c(Nc4ccccc4)ncnc32)O1
[6]
  IC50: 7.72 µM (active)

## O=C(O)c1ccc2c(c1)C(=O)/C(=C/c1ccccc1)C2=O
Vero
  CC50: > 40 µM (active)
[7]
  IC50: > 66 µM (inactive)
Genome polyprotein
  IC50: 12.2 µM (active)
[8]
  IC50: 3.5 µM (active)
[9]
  IC50: > 66 µM (inactive)
[10]
  AC50: 37.7 µM (active)

## Cc1csc2c(=O)sc(NC(=O)c3cccs3)nc12
[2]
  IC50: 8.33 µM (active)
[3]
  IC50: 36.9 µM (inactive)

## Clc1cccc(-c2nc3ccc(Br)cn3c2Cc2ccccc2)c1
[1]
  IC50: > 67.5 µM (inactive)
Protein skinhead-1
  IC50: > 100 µM (inactive)
cells
  IC50: > 67.5 µM (inactive)

## C[C@H]1CN([C@@H](C)CO)C(=O)c2cc(C#Cc3ccccc3)cnc2O[C@H]1CN(C)C(=O)c1ccccc1
[11]
  AC50: 1.99 µM (active)
[12]
  AC50: 17.8 µM (active)

## Cc1ccc([C@H]2C(C(=O)O)=CC[C@@H](c3ccc(C)cc3)N2S(=O)(=O)c2ccc(C)cc2)cc1
[13]
  IC50: 34.5 µM (active)
[14]
  IC50: > 20 µM (inactive)
[15]
  EC50: 50.2 µM (active)
